{"source": "patent US5861417A", "about": "“Heterocyclic substituted pyrrolidine amide derivatives” (Hoechst Marion Roussel, Inc., priority 1997, dated 1999)", "key": {"[1]": {"assay": "Metabolic Stability in Guinea Pig Liver S9", "assay_type": "in vitro ADME", "conditions": "guinea pig liver S9, 10 μM initial, 37° C.", "experimental": "(§1) Evaluation of metabolism in human and guinea pig liver\n(§2) One skilled in the art can determine the metabolic stability for the compounds of the present invention by determining the rate of disappearance of the test compound in vitro in liver extracts. Metabolic stability is inversely related to the rate of metabolism which can be evaluated by determining the rate of disappearance of the test compounds during the initial linear phase of this assay.\n(§3) This method is carried out using either S9 or S10 liver supernatant obtained from either guinea pig or human liver. Guinea pig liver S9 can be purchased from Vitro Technologies, Baltimore, Md. and human liver S9 can be purchased from IIAM, Eaton Pa. Both guinea pig and human S10 supernatant can be prepared as follows: Combine weighed liver (fresh or stored at -80° C. until use) and 1.15% aqueous potassium chloride solution (10-15 mL) and homogenize using a PCU Poltron from Kinematics of Switzerland or equivalent. Combine the homogenate with 1.15% aqueous potassium chloride solution, sufficient so that 3 mL of solution (total) is used per […] of liver, and mix. Store the above homogenate on ice at all times prior to use and at -80° C. for long term storage.\n(§4) Centrifuge a 20 mL volume of the homogenate at 12,500 rpm (10,000×gravity) at 3° C. After 20 minutes, remove the cover of white lipid protein, if present, and transfer the supernatant to a clean centrifuge tube. Centrifuge the supernatant at 12,500 (10,000×gravity) at 3° C. for 20 minutes before transfer to a clean storage vessel to give the S10 supernatant. Store the S10 supernatant on ice or at -80° C. for long term storage.\n(§5) Prepare a stock solution of each test compound in methanol, such that 0.1 mL of the stock solution when spiked into 16 mL of incubation mixture yields an initial concentration of 10 μM of the test compound. Using this method the methanol content of the final incubation mixture will not exceed 1%.\n(§6) Prepare the incubation mixture by combining in an incubation beaker S9 or S10 supernatant (4 mL); an aqueous solution containing 1.1 mM NADP, […] (4 units/2 mL)(0.32 mL); and an aqueous 0.1M dipotassium monohydrogen phosphate solution (7.58 mL). Incubate the test compound by adding 0.1 mL of the stock solution of test compound to an incubation mixture, placed in a shaking water bath at 37° C.\n(§7) To determine the rate of disappearance of test compounds in this assay, remove triplicate aliquots (0.5 mL) from the incubation beaker at 1, 3, 5, 10, 15, 30, and 60 minutes. Freeze all aliquots in a hexane/dry-ice slurry to instantly deactivate the enzymes. Store at -70° C. until assayed. The concentration of test compound in each aliquot is determined by HPLC after preparation and as compared to a standard concentration of test compound, such preparations and determinations are well known and appreciated in the art. The rate of disappearance can be determined from the slope of the initial linear phase of this assay by graphing the change in concentration of test compound vs. time.\n(§8) Calibration standards for Compound A were prepared as follows: dissolve 10 mg of Compound A (free base) in methanol (10 mL) to give a 1 mg/mL stock solution. Use acetonitrile to dilute 1 mL of stock solution to 10 mL to give a 100 μg/mL spiking standard and serially dilute the 100 μg/mL solution with acetonitrile to give spiking standards having concentrations of 50, 25, 10, 5, 2.5, and 1.0 μg/mL. Calibration standards having concentrations of 10,000; 5,000; 2,500; 1,000; 500; 250; and 100 ng/mL are prepared in duplicated by adding 20 μL of each spiking standards to 0.2 mL of control S9 supernatant. Blanks and samples each receive 20μL of acetonitrile. […]"}, "[2]": {"assay": "Metabolic Stability in Human Liver S9", "assay_type": "in vitro ADME", "conditions": "human liver S9, 10 μM initial, 37° C.", "experimental": "as §1, §2, §3, §4, §5, §6, §7, §8"}}, "data": [{"smiles": "COc1cc(C(=O)N2CCC(CCN3CCC(C(N)=O)(c4ccccc4)CC3)(c3ccc(Cl)c(Cl)c3)C2)cc(OC)c1OC.Cl", "note": "(single isomer, unassigned; (+)) [Compound C, (+)-1-(2-(3-(3,4-dichloro-phenyl)-1-(3,4,5-trimethoxy-benzoyl)-pyrrolidin-3-yl)-ethyl)-4-phenyl-piperidine-4-carboxylic acid amide hydrochloride]", "values": [{"measurement": "concentration", "setting": "[1]; 1 min", "result": 6300, "unit": "ng/mL"}, {"measurement": "concentration", "setting": "[1]; 3 min", "result": 6000, "unit": "ng/mL"}, {"measurement": "concentration", "setting": "[1]; 5 min", "result": 5300, "unit": "ng/mL"}, {"measurement": "concentration", "setting": "[1]; 10 min", "result": 4800, "unit": "ng/mL"}, {"measurement": "concentration", "setting": "[1]; 15 min", "result": 4000, "unit": "ng/mL"}, {"measurement": "concentration", "setting": "[1]; 30 min", "result": 3800, "unit": "ng/mL"}, {"measurement": "concentration", "setting": "[1]; 60 min", "result": 3500, "unit": "ng/mL"}, {"measurement": "concentration", "setting": "[2]; 1 min", "result": 6200, "unit": "ng/mL"}, {"measurement": "concentration", "setting": "[2]; 3 min", "result": 5600, "unit": "ng/mL"}, {"measurement": "concentration", "setting": "[2]; 5 min", "result": 5900, "unit": "ng/mL"}, {"measurement": "concentration", "setting": "[2]; 10 min", "result": 5200, "unit": "ng/mL"}, {"measurement": "concentration", "setting": "[2]; 15 min", "result": 4500, "unit": "ng/mL"}, {"measurement": "concentration", "setting": "[2]; 30 min", "result": 3200, "unit": "ng/mL"}, {"measurement": "concentration", "setting": "[2]; 60 min", "result": 2500, "unit": "ng/mL"}]}]}
